Measurements published in patent US20240252670A1, “ANTIBODY DRUG CONJUGATE, PREPARATION METHOD THEREFOR AND APPLICATION THEREOF” (TSINGHUA UNIVERSITY, priority 2021, published 2024).

System: B16 melanoma
Test: Anti-tumor activity in B16 melanoma mouse model
Format: in vivo
Conditions: B16 mice, i.p.; antibody drugs 150 μg, D18 25 μg per mouse; dosing to day 21
Source text: A. Treatment with ADC HE-S2, single administration of anti-PD-L1 antibody, D18, or anti-PD-L1 THIOMAB, and anti-PD-L1 antibody/D18 combined administration for inhibitory activity against mouse MC38 tumor growth. B. Whole animal survival study. The ordinate of the curve represents the percentage of tumor-bearing mice that remained alive after different days, and the abscissa thereof represents the number of experimental days. C. Treatment with ADC HE-S2, single administration of anti-PD-L1 antibody, D18, or anti-PD-L1 THIOMAB, and anti-PD-L1 antibody/D18 combined administration for inhibitory activity against mouse MC38 tumor growth. Student's t test was used to compare significant differences between the groups, and p<0.001 is represented by ***.
B16 melanoma is a tumor with low PD-L1 level and certain drug resistance to PD-1/PD-L1 blocking treatment. As a result, as expected by the inventors, the inhibitory effect of each drug on B16 melanoma was reduced relative to the MC38 tumor.
Dosage: Antibody drugs, administered 150 μg per mouse for each time, and D18, administered 25 μg per mouse for each time. - means no administration on the day. * Only mice with MC38 tumor model were allowed to be administered until the 24th day, and mice with B16 tumor model were no longer administered after the 21st day.

Substance: anti-PD-L1 THIOMAB: mutant avelumab, light chain V205C (SEQ ID NO: 9), heavy chain SEQ ID NO: 4; pHrodo red labeled in internalization tests
- inhibitory effect on B16 melanoma: almost comparative to that of the IgG isotype antibody
